Read-outs that look alike come from different tables or passages of the source.
Columns and labels:
[1] = system: hand-foot syndrome induced by anti-tumor agents; assay: Prevention of hand-foot syndrome induced by anti-tumor agents in rats, NO-NSAID ointment on hind paws (Table 2-2); assay type: in vivo, SD rats; details: Rattus norvegicus, topical, 120 h, Sorafenib 80 mg/kg once a day, Days 5, read-out: Control rate
Method in brief: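 Female SD rats (8 weeks, ~200 g; 10/group) received anti-tumour agents by daily oral gavage in Cremophor EL:ethanol 1:1 diluted ~3× with PBS. NO-NSAID or blank ointment was applied to hind paws once daily, 4 h restrained, then wiped off. Control rate = blank-group minus treated-group hand-foot syndrome incidence.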

[2] = system: HUVEC cells; assay: CCK-8 cell viability: alleviation of proliferative toxicity of anti-tumor agents on HUVEC cells (Tables 7-1, 7-2); assay type: cell-based; details: for activation at 100 µM: Homo sapiens, 24 h, percentage increase in viable cells vs anti-tumor agent alone, read-out: Response rate % (average)
Method in brief: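 HUVEC cells were treated with anti-tumor agent (DMSO solvent) alone or combined with NO-NSAID (ethanol or water solvent), and NO-NSAID solvent controls were used for correction. After 24-48 h of culture, viability was read by CCK-8 to derive proliferative toxicity and how much NO-NSAID mitigated it.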

[3] = Afatinib (10 μM), NO-NSAID 100 μM
[4] = Cabozantinib (5 μM), NO-NSAID 100 μM
[5] = Dabrafenib (10 μM), NO-NSAID 100 μM
[6] = Everolimus (5 μM), NO-NSAID 100 μM
[7] = Infigratinib (15 μM), NO-NSAID 100 μM
[8] = Lapatinib (5 μM), NO-NSAID 100 μM
[9] = Lenvatinib (10 μM), NO-NSAID 100 μM
[10] = Olmutinib (10 μM), NO-NSAID 100 μM
[11] = Regorafenib (5 μM), NO-NSAID 100 μM
[12] = Selumetinib (5 μM), NO-NSAID 100 μM
[13] = Sorafenib (5 μM), NO-NSAID 100 μM
[14] = Sunitinib (5 μM), NO-NSAID 100 μM

CC(C)Cc1ccc(C(C)C(=O)OCO/N=[N+](\[O-])N(C)C)cc1 (stereo not drawn) [Compound A4]
responders at 0.5 % ([1]; ointment 0.50% wt): 42.9%
responders at 2 % ([1]; ointment 2% wt): 71.4%
NO-NSAID response rate % (average) ([2]; Afatinib (10 μM), NO-NSAID 0.1 μM): 18%
NO-NSAID response rate % (average) ([2]; Afatinib (10 μM), NO-NSAID 1 μM): 35%
NO-NSAID response rate % (average) [2, 3]: 70%
NO-NSAID response rate % (average) ([2]; Afatinib (10 μM), NO-NSAID 500 μM): 14%
NO-NSAID response rate % (average) ([2]; Cabozantinib (5 μM), NO-NSAID 0.1 μM): 3%
NO-NSAID response rate % (average) ([2]; Cabozantinib (5 μM), NO-NSAID 1 μM): 9%
NO-NSAID response rate % (average) [2, 4]: 13%
NO-NSAID response rate % (average) ([2]; Cabozantinib (5 μM), NO-NSAID 500 μM): 11%
NO-NSAID response rate % (average) ([2]; Dabrafenib (10 μM), NO-NSAID 0.1 μM): 20%
NO-NSAID response rate % (average) ([2]; Dabrafenib (10 μM), NO-NSAID 1 μM): 34%
NO-NSAID response rate % (average) [2, 5]: 33%
NO-NSAID response rate % (average) ([2]; Dabrafenib (10 μM), NO-NSAID 500 μM): 41%
NO-NSAID response rate % (average) ([2]; Everolimus (5 μM), NO-NSAID 0.1 μM): 10%
NO-NSAID response rate % (average) ([2]; Everolimus (5 μM), NO-NSAID 1 μM): −2%
NO-NSAID response rate % (average) [2, 6]: 1%
NO-NSAID response rate % (average) ([2]; Everolimus (5 μM), NO-NSAID 500 μM): 4%
activation at 100 µM [2, 3]: 70%
activation at 100 µM ([2]; Anlotinib (5 μM), NO-NSAID 100 μM): 67%
activation at 100 µM ([2]; Apatinib (10 μM), NO-NSAID 100 μM): 52%
activation at 100 µM ([2]; Axitinib (10 μM), NO-NSAID 100 μM): 39%
activation at 100 µM [2, 4]: 13%
activation at 100 µM [2, 5]: 33%
activation at 100 µM ([2]; Dacomitinib (5 μM), NO-NSAID 100 μM): 71%
activation at 100 µM ([2]; Encorafenib (5 μM), NO-NSAID 100 μM): 59%
activation at 100 µM ([2]; Erdafitinib (10 μM), NO-NSAID 100 μM): 45%
activation at 100 µM [2, 6]: 1%
activation at 100 µM ([2]; Famitinib (5 μM), NO-NSAID 100 μM): 69%
activation at 100 µM ([2]; Fruquintinib (10 μM), NO-NSAID 100 μM): 62%
activation at 100 µM ([2]; Gefitinib (10 μM), NO-NSAID 100 μM): 42%
activation at 100 µM [2, 7]: 30%
activation at 100 µM [2, 8]: 30%
activation at 100 µM [2, 9]: 74%
activation at 100 µM [2, 10]: 28%
activation at 100 µM [2, 11]: 74%
activation at 100 µM [2, 12]: 34%
activation at 100 µM [2, 13]: 76%
activation at 100 µM [2, 14]: 34%
activation at 100 µM ([2]; Vemurafenib (5 μM), NO-NSAID 100 μM): 58%
NO-NSAID response rate % (average) ([2]; Infigratinib (15 μM), NO-NSAID 0.1 μM): 23%
NO-NSAID response rate % (average) ([2]; Infigratinib (15 μM), NO-NSAID 1 μM): 39%
NO-NSAID response rate % (average) [2, 7]: 30%
NO-NSAID response rate % (average) ([2]; Infigratinib (15 μM), NO-NSAID 500 μM): 18%
NO-NSAID response rate % (average) ([2]; Lapatinib (5 μM), NO-NSAID 0.1 μM): 20%
NO-NSAID response rate % (average) ([2]; Lapatinib (5 μM), NO-NSAID 1 μM): 17%
NO-NSAID response rate % (average) [2, 8]: 30%
NO-NSAID response rate % (average) ([2]; Lapatinib (5 μM), NO-NSAID 500 μM): 28%
NO-NSAID response rate % (average) ([2]; Lenvatinib (10 μM), NO-NSAID 0.1 μM): 24%
NO-NSAID response rate % (average) ([2]; Lenvatinib (10 μM), NO-NSAID 1 μM): 15%
NO-NSAID response rate % (average) [2, 9]: 74%
NO-NSAID response rate % (average) ([2]; Lenvatinib (10 μM), NO-NSAID 500 μM): 14%
NO-NSAID response rate % (average) ([2]; Olmutinib (10 μM), NO-NSAID 0.1 μM): 25%
NO-NSAID response rate % (average) ([2]; Olmutinib (10 μM), NO-NSAID 1 μM): 38%
NO-NSAID response rate % (average) [2, 10]: 28%
NO-NSAID response rate % (average) ([2]; Olmutinib (10 μM), NO-NSAID 500 μM): 30%
NO-NSAID response rate % (average) ([2]; Regorafenib (5 μM), NO-NSAID 0.1 μM): 29%
NO-NSAID response rate % (average) ([2]; Regorafenib (5 μM), NO-NSAID 1 μM): 26%
NO-NSAID response rate % (average) [2, 11]: 74%
NO-NSAID response rate % (average) ([2]; Regorafenib (5 μM), NO-NSAID 500 μM): 26%
NO-NSAID response rate % (average) ([2]; Selumetinib (5 μM), NO-NSAID 0.1 μM): 35%
NO-NSAID response rate % (average) ([2]; Selumetinib (5 μM), NO-NSAID 1 μM): 33%
NO-NSAID response rate % (average) [2, 12]: 34%
NO-NSAID response rate % (average) ([2]; Selumetinib (5 μM), NO-NSAID 500 μM): 41%
NO-NSAID response rate % (average) ([2]; Sorafenib (5 μM), NO-NSAID 0.1 μM): 4%
NO-NSAID response rate % (average) ([2]; Sorafenib (5 μM), NO-NSAID 1 μM): 17%
NO-NSAID response rate % (average) [2, 13]: 76%
NO-NSAID response rate % (average) ([2]; Sorafenib (5 μM), NO-NSAID 500 μM): 16%
NO-NSAID response rate % (average) ([2]; Sunitinib (5 μM), NO-NSAID 0.1 μM): 19%
NO-NSAID response rate % (average) ([2]; Sunitinib (5 μM), NO-NSAID 1 μM): 20%
NO-NSAID response rate % (average) [2, 14]: 34%
NO-NSAID response rate % (average) ([2]; Sunitinib (5 μM), NO-NSAID 500 μM): 20%

Source: patent US20250170090A1, “METHOD FOR PREVENTING OR TREATING DISEASE OR DISORDER ASSOCIATED WITH ANTINEOPLASTIC AGENT” (ONQUALITY PHARMACEUTICALS CHINA LTD., priority 2022, published 2025)
